The values that follow come from patent US8748483B2, “Use of substituted pyranone acid derivatives for the treatment of metabolic syndrome” (SANOFI, priority 2007, dated 2014).

One assay relates to lipolysis. Put plainly: Inhibition of lipolysis in the whole animal after p.o. administration (FFA, glycerol, triglycerides in blood). Type of assay: in vivo, Wistar rats. The procedure:
The effect was tested on the whole animal (mouse, rat, hamster or dog), after a fasting period (e.g. of about 16 hours the substance is administered (e.g. p.o., iv., i.p., s.c.) and, with or without additional stimulation of endogenous lipolysis (e.g. by a bolus injection of 2 mg/kg i.p. isoprenaline), the effect of the test substance on lipolysis is determined on the basis of the liberated free fatty acids (FFA), glycerol and triglycerides by obtaining a blood sample (e.g. by retroorbital blood sampling) e.g. 15 min, 30, 60, 120 etc minutes after p.o. administration, and analyzing by standard methods of clinical chemistry (e.g. L. Thomas: Labor and Diagnose, 2nd edition, Medizinische Verlagsgesellschaft, Marburg/L. 1984; ISBN 3-921320-10-9)). The inhibition of lipolysis by the inhibitors is analyzed by comparing with the rate of lipolysis in correspondingly treated control animals.

The target in assay [1] is T1, GPCR HM74A (niacin receptor) (Homo sapiens, UniProt Q8TDS4).
T1 construct: expressed in transfected cells; host or cells: HEK293
Put plainly: FLIPR in vitro functional assay, intracellular Ca2+ in recombinant HEK293 cells expressing HM74A and Gα6qi4myr. Conditions: 100% = 1 μM niacin. It counts as cell-based. The procedure:
Function-testing assays were carried out by means of the FLIPR technique (“Fluorescence Imaging Plate Reader”, Molecular Devices Corp.). For this purpose, agonist-induced changes in the intracellular concentration of Ca^2+ in recombinant HEK293 cells which express both the GPCR HM74A (niacin receptor) and the hybrid G-protein Gα6qi4myr (see, for example, DE patent application 10033353) were determined.
For the investigations, cells were seeded into 96-well microtiter plates (60 000 cells/well) and allowed to grow overnight. The medium was removed and the cells were incubated in buffer which contained the fluorescent dye Fluo-4. After this loading with dye, the cells were washed, test substance was added, and changes in the intracellular Ca^2+ concentration were measured in the FLIPR apparatus. Results have been shown as percentage change relative to the control (0%: no test substance added; 100%:1 μM reference agonist niacin added), used to calculate dose/activity plots and EC50 values determined.

[2] abbreviates: 3 mg/kg po, 15 min, Wistar rats.
[3] abbreviates: 3 mg/kg po, 30 min, Wistar rats.
Setting [4] is: 3 mg/kg po, 60 min, Wistar rats.
Setting [5] is: 3 mg/kg po, 120 min, Wistar rats.
The mark [6] stands for this setting: 3 mg/kg po, time 0, Wistar rats.
Setting [7] is: 1 mg/kg po, 30 min, Wistar rats.
[8] abbreviates: 1 mg/kg po, 60 min, Wistar rats.
The mark [9] stands for this setting: 1 mg/kg po, 120 min, Wistar rats.
Where [10] appears, read: 1 mg/kg po, time 0, Wistar rats.
Setting [11] is: 10 mg/kg po, 30 min, Wistar rats.
Where [12] appears, read: 10 mg/kg po, 60 min, Wistar rats.
Setting [13] is: 10 mg/kg po, 120 min, Wistar rats.
The mark [14] stands for this setting: 10 mg/kg po, time 0, Wistar rats.

Each structure is given as a SMILES string.

T1 sequence (Q8TDS4 whole entry): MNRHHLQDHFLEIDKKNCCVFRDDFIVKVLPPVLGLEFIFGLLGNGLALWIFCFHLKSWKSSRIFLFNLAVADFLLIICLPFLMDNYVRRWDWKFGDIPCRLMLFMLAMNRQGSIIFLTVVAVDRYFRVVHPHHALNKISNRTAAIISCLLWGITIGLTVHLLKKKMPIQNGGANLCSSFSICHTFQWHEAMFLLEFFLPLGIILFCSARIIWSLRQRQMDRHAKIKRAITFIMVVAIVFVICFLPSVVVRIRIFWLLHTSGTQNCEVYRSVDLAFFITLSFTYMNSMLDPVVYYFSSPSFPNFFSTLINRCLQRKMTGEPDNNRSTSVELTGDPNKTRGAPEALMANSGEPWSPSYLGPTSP

With `O=C(O)c1cc(=O)cco1` [Example 1], in the assay with lipolysis (3 mg/kg po), the “lipolysis (reduction in FFA, glycerol and triglycerides)” value is given as “distinctly reduced”. Moreover, the FFA in the assay with lipolysis (setting [2]) amounted to 0.22 mmol/L; in the assay on lipolysis (setting [3]) it was 0.14 mmol/L; in the assay with lipolysis (setting [4]), 0.16 mmol/L; with lipolysis (setting [5]) it was 0.28 mmol/L; with lipolysis (setting [6]) it was 0.55 mmol/L. Moreover, the Glycerol with lipolysis (setting [2]) turned out to be 55 µmol/L; with lipolysis (setting [3]), 43 µmol/L; with lipolysis (setting [4]) it was 43 µmol/L; in the assay with lipolysis (setting [5]) it was 74 µmol/L; with lipolysis (setting [6]), 117 µmol/L. The Triglycerides in the assay with lipolysis (setting [2]) is 0.48 mmol/L; in the assay with lipolysis (setting [3]) it was 0.28 mmol/L; in the assay on lipolysis (setting [4]) it was 0.21 mmol/L; in the assay on lipolysis (setting [5]), 0.25 mmol/L; in the assay with lipolysis (setting [6]) it was 0.53 mmol/L. Besides, the EC50 in assay [1] is 0.09 µM. In the case of `Cc1ccc(COc2coc(C(=O)O)cc2=O)cc1` [Example 2, 5-(4-methylbenzyloxy)-4-oxo-4H-pyran-2-carboxylic acid], the EC50 in assay [1] came to 4.12 µM. Still for that read-out and setting: to `O=C(O)c1cc(=O)c(OCc2ccccc2)co1` [Example 3] belongs 28.8 µM. `C=CCOc1coc(C(=O)O)cc1=O` [Example 4]: in assay [1], the EC50 stood at 29.9 µM. Same read-out and setting: as for `CCCCCOc1coc(C(=O)O)cc1=O` [Example 5], the figure is 1.2 µM. The same measure, in the same setting: to `CCCCOc1coc(C(=O)O)cc1=O` [Example 6] belongs 52.9 µM; to `O=C(O)c1cc(=O)c(OCc2cccc(F)c2)co1` [Example 7], 62.8 µM; to `O=C(O)c1cc(=O)c(OCc2cccc([N+](=O)[O-])c2)co1` [Example 8], 36.8 µM.

`O=C(O)c1cc(=O)c(OCc2ccc([N+](=O)[O-])cc2)co1` [Example 9]: the EC50 in assay [1] is 43.4 µM. The same measure, in the same setting: as for `N#Cc1ccc(COc2coc(C(=O)O)cc2=O)cc1` [Example 10], the figure is 14.7 µM. Same read-out and setting: as for `Cc1cc(C)cc(COc2coc(C(=O)O)cc2=O)c1` [Example 11], the figure is 31.2 µM; as for `O=C(O)c1cc(=O)c(OCc2ccc(F)cc2)co1` [Example 12], 49.5 µM.

In the case of `O=C(O)c1cc(=O)c(OCc2cccc(Cl)c2)co1` [Example 13], the EC50 in assay [1] came out at 19.5 µM. Still for that read-out and setting: to `O=C(O)c1cc(=O)c(OCc2ccccc2F)co1` [Example 14] belongs 12.1 µM; to `N#Cc1cccc(COc2coc(C(=O)O)cc2=O)c1` [Example 15], 67.1 µM.

As for `C/C=C/c1oc(C(=O)O)cc(=O)c1OCc1ccc(C)cc1` [Example 16, 5-(4-methylbenzyloxy)-4-oxo-6-propenyl-4H-pyran-2-carboxylic acid], the EC50 in assay [1] is 0.1 µM. The same measure, in the same setting: as for `C/C=C/c1oc(C(=O)O)cc(=O)c1OCc1ccc([N+](=O)[O-])cc1` [Example 17], the figure is 0.24 µM; as for `C/C=C/c1oc(C(=O)O)cc(=O)c1OCc1ccc(C#N)cc1` [Example 18], 0.36 µM. On the same count and under the same terms, as for `C/C=C/c1oc(C(=O)O)cc(=O)c1OCCCCC` [Example 19], the figure is 0.39 µM; as for `C/C=C/c1oc(C(=O)O)cc(=O)c1OCC` [Example 20], 0.73 µM; as for `CCCc1oc(C(=O)O)cc(=O)c1OCc1ccc(C)cc1` [Example 21, 5-(4-methylbenzyloxy)-4-oxo-6-propyl-4H-pyran-2-carboxylic acid], 4.4 µM. Turning to `CCCc1oc(C(=O)O)cc(=O)c1OCc1ccc(C#N)cc1` [Example 22], the EC50 in assay [1] worked out at 45 µM. Still for that read-out and setting: to `CCCCCCOc1coc(C(=O)O)cc1=O` [Example 23] belongs 34.2 µM; to `O=C(O)c1cc(=O)c(OCC(F)(F)F)co1` [Example 24], 1 µM; to `O=C(O)c1cc(=O)c(OCCCF)co1` [Example 25], 0.76 µM.

Consider `CC(C)COc1coc(C(=O)O)cc1=O` [Example 26], for which, in assay [1], the EC50 is 45.3 µM.

Take `CC(C)Oc1coc(C(=O)O)cc1=O` [Example 27]: the EC50 in assay [1] amounted to 4.61 µM.

Take `O=C(O)c1cc(=O)c(OCc2ccc(OC(F)F)cc2)co1` [Example 28]: in assay [1], the EC50 stood at 1.81 µM. Still for that read-out and setting: as for `O=C(O)c1cc(=O)c(OCc2ccc(C(F)(F)F)cc2)co1` [Example 29], the figure is 45.1 µM; as for `CCc1ccc(COc2coc(C(=O)O)cc2=O)cc1` [Example 30], 3.24 µM. On to `O=C(O)c1cc(=O)c(OCc2ccc(Cl)cc2)co1` [Example 31], for which, in assay [1], the EC50 came to 7.43 µM.

In the case of `CC(C)c1ccc(COc2coc(C(=O)O)cc2=O)cc1` [Example 32], the EC50 in assay [1] was 1.48 µM. Same read-out and setting: as for `O=C(O)c1cc(=O)c(OCc2ccc(OC(F)(F)F)cc2)co1` [Example 33], the figure is 22.4 µM. Turning to `N#Cc1ccc(C(=O)Oc2coc(C(=O)O)cc2=O)cc1` [Example 34], the EC50 in assay [1] came out at 0.31 µM.

Turning to `Cc1ccc(C(=O)Oc2coc(C(=O)O)cc2=O)cc1` [Example 35], the EC50 in assay [1] was 1.19 µM. Take `C/C=C/c1oc(C(=O)O)cc(=O)c1OCC(F)(F)F` [Example 36]: the EC50 in assay [1] came out at 0.07 µM. The same measure, in the same setting: as for `CCCc1cc(=O)cc(C(=O)O)o1` [Example 37, 6-propyl-4-oxo-4H-pyran-2-carboxylic acid], the figure is 66.7 µM; as for `C/C=C/c1oc(C(=O)O)cc(=O)c1CCCC` [Example 38], 0.14 µM; as for `COC(=O)/C=C/c1coc(C(=O)O)cc1=O` [Example 39], 1.19 µM. Regarding `CCOC(=O)/C=C/c1coc(C(=O)O)cc1=O` [Example 40, 5-((E)-2-ethoxycarbonylvinyl)-4-oxo-4H-pyran-2-carboxylic acid], the EC50 in assay [1] stood at 1.19 µM. On the same count and under the same terms, to `CC(C)OC(=O)/C=C/c1coc(C(=O)O)cc1=O` [Example 41] belongs 6.87 µM; to `C=C(CCC)c1coc(C(=O)O)cc1=O` [Example 42], 6.6 µM; to `CCC/C=C/c1coc(C(=O)O)cc1=O` [Example 43], 1.03 µM. On the same count and under the same terms, to `Cc1ccc(/C=C/c2coc(C(=O)O)cc2=O)cc1` [Example 44] belongs 4.83 µM; to `O=C(O)c1cc(=O)c(/C=C/CCc2ccccc2)co1` [Example 45], 10.8 µM. The same measure, in the same setting: as for `CCCCCc1coc(C(=O)O)cc1=O` [Example 46], the figure is 0.01 µM.

Consider `CCCCc1coc(C(=O)O)cc1=O` [Example 47], for which the “lipolysis (reduction in FFA, glycerol and triglycerides)” value in the assay with lipolysis (1 mg/kg po) was “distinctly reduced”. The FFA with lipolysis (setting [7]) is 0.25 mmol/L; in the assay on lipolysis (setting [8]), 0.37 mmol/L; with lipolysis (setting [9]) it was 0.41 mmol/L; in the assay with lipolysis (setting [10]), 0.84 mmol/L. The Glycerol in the assay with lipolysis (setting [7]) came to 41 µmol/L; with lipolysis (setting [8]), 55 µmol/L; in the assay with lipolysis (setting [9]), 70 µmol/L; in the assay with lipolysis (setting [10]) it was 162 µmol/L. The Triglycerides in the assay with lipolysis (setting [7]) turned out to be 0.25 mmol/L; with lipolysis (setting [8]), 0.37 mmol/L; in the assay with lipolysis (setting [9]) it was 0.41 mmol/L; in the assay with lipolysis (setting [10]) it was 0.84 mmol/L. The EC50 in assay [1] came to 0.01 µM. Take `CCCc1coc(C(=O)O)cc1=O` [Example 48, 5-propyl-4-oxo-4H-pyran-2-carboxylic acid]: in the assay on lipolysis (10 mg/kg po), the “lipolysis (reduction in FFA, glycerol and triglycerides)” value is “distinctly reduced”. Also, the FFA came to 0.19 mmol/L in the assay on lipolysis (setting [11]), 0.19 mmol/L in the assay with lipolysis (setting [12]), 0.16 mmol/L in the assay on lipolysis (setting [13]) and 0.51 mmol/L with lipolysis (setting [14]). The Glycerol in the assay with lipolysis (setting [11]) stood at 35 µmol/L; with lipolysis (setting [12]) it was 26 µmol/L; with lipolysis (setting [13]), 24 µmol/L; with lipolysis (setting [14]), 100 µmol/L. The Triglycerides in the assay on lipolysis (setting [11]) was 0.36 mmol/L; in the assay with lipolysis (setting [12]) it was 0.25 mmol/L; with lipolysis (setting [13]) it was 0.27 mmol/L; in the assay on lipolysis (setting [14]) it was 0.41 mmol/L. The EC50 in assay [1] turned out to be 0.05 µM. In the case of `CC(C)CCc1coc(C(=O)O)cc1=O` [Example 49, 5-(3-methylbutyl)-4-oxo-4H-pyran-2-carboxylic acid], the EC50 in assay [1] amounted to 0.21 µM. Turning to `CC(C)Cc1coc(C(=O)O)cc1=O` [Example 51], the EC50 in assay [1] was 0.22 µM.

As for `CC(C)c1coc(C(=O)O)cc1=O` [Example 52], the EC50 in assay [1] was 2.69 µM.

A word on the EC50: it is the concentration needed to bring the measured effect to its halfway point.
